Measured values as given in patent publication US20070203134A1, “Benzimidazole Acetonitriles” (APPLIED RESEARCH SYSTEMS ARS HOLDING N.V., priority 2004, published 2007).

How the values were obtained:
db/db mice = assay: Experimental model of type II diabetes (oral postprandial glycemia in db/db mice); type: in vivo; details: 50 mg/kg per os, 4 hrs after drug administration, compared to vehicle treated Group 1
Method: b) In Vivo Assay: Experimental Model of Type II Diabetes (oral Postprandial Glycemia in db/db Mice)
The following assay aims at determining the anti-diabetic effect of the test compounds of formula (I) in a model of postprandial glycemia in db/db mice, in vivo.
The assay was performed as follows:
A total of 24 db/db mice (about 8-9 weeks; obtained from IFFACREDO, l'Arbreste, France) were fasted during 20 hours.
2 groups, each consisting of 6 animals were formed: • Group 1: The animals were administered (per os) a dose of 10 mg/kg of vehicle. • Group 2: The animals were administered per os) a dose of 50 mg/kg of the test compound according to formula (D.
After oral administration of the compounds of formula (I) solubilized or suspended in CarboxyMethylCellulose (0.5%), Tween 20 (0.25%) and water as vehicle, the animals had access to commercial food (D04, UAR, Villemoisson/Orge, France) ad libitum. The diabetic state of the mice was verified by determining the blood glucose level before drug administration. Blood glucose and serum insulin levels were then determined 4 hrs after drug administration.
The determination of the blood glucose level was performed using a glucometer (Precision Q.I.D., Medisense, Abbot, ref. 212.62.31). […]
Changes in blood glucose and serum insulin of drug treated mice were expressed as a percentage of control (group 1: vehicle treated mice).

human GSK3 beta = human GSK3 beta (Homo sapiens, UniProt P49841); assay: GSK3β in vitro kinase assay (33P-ATP phosphorylation of phospho GS2 peptide); type: biochemical; details: in vitro potency, read-out: IC50 (μM) GSK3beta
Method: GSK3β Assay (see Bioorg. Med. Chem. Lett by Naerum et al. 12 p. 1525-1528 (2002))
In a final reaction volume of 25 μl, GSK3β (h) (5-10 mU) is incubated with 8 mM MOPS pH 7.0, 0.2 mM EDTA, 20 μM […](p)EDEEE (being the GSK3 substrate; a phospho GS2 peptide), 10 mM Mg Acetate and [γ-^33P-ATP] (Specific activity approx. 500 cpm/pmol, concentration as required). The reaction is initiated by the addition of Mg^2+ [γ-^33P-ATP]. After incubation for 40 minutes at room temperature, the reaction is stopped by the addition of 5 μl of a 3% phosphoric acid solution. 10 μl of the reaction is then spotted onto a P30 filtermat and washed three times for 5 minutes in 50 mM phosphoric acid and once in methanol prior to drying and the degree of phosphorylation of the substrate is determined by scintillation counting.

human GSK3 beta, sequence (P49841 whole entry): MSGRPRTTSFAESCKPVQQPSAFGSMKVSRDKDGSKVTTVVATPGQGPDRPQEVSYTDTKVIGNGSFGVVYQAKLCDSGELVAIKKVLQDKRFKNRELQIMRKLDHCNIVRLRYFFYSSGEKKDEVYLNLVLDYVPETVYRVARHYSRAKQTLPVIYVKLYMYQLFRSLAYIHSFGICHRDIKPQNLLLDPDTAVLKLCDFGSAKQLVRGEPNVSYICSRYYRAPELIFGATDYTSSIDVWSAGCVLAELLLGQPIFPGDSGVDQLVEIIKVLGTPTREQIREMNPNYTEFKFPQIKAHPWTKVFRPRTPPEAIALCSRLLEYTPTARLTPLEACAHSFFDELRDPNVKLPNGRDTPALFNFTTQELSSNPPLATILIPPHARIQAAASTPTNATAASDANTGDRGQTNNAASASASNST

In the case of `CCN1/C(=C(\C#N)c2nc(NC3CCC3)ncc2C)Nc2ccccc21` [Example 3], the “blood glucose level reduced” value (db/db mice) is reported as “about 28%” and the insulin level reduced (db/db mice; serum insulin) is reported as “about 58%”.

With `CCN1/C(=C(\C#N)c2nc(NC3CCCCCC3)ncc2C)Nc2ccccc21` [Example 12, (2Z)-[2-(cycloheptylamino)-5-methylpyrimidin-4-yl](1-ethyl-1,3-dihydro-2H-benzimidazol-2-ylidene)acetonitrile] the IC50 (human GSK3 beta) was under 10 µM.

Work on `N#C/C(=C1/Nc2ccccc2N1C1CCC1)c1ccnc(NCCCN2CCCC2=O)n1` [Example 15, (2Z)-(1-cyclobutyl-1,3-dihydro-2H-benzimidazol-2-ylidene)(2-{[3-(2-oxopyrrolidin-1-yl)propyl]amino}pyrimidin-4-yl)acetonitrile] yielded an IC50 (human GSK3 beta) of under 10 µM.

`Cc1cnc(NC2CCCC2)nc1C(C#N)=C1Nc2ccccc2N1` [Example 28, [2-(cyclopentylamino)-5-methylpyrimidin-4yl](1,3-dihydro-2H-benzimidazol-2-ylidene)acetonitrile] was tested, and the IC50 (human GSK3 beta) was under 10 µM.

For `CCN1/C(=C(\C#N)c2cc(NCCc3cccnc3)ncn2)Nc2ccccc21` [Example 46], the IC50 (human GSK3 beta) was under 10 µM.

With `CCN1/C(=C(\C#N)c2nc(NC(=O)CCCNC(=O)OC(C)(C)C)ncc2C)Nc2ccccc21` [Example 73, tert-butyl[4-({4-[(Z)-cyano(1-ethyl-1,3-dihydro-2H-benzimidazol-2-ylidene)methyl]-5-methylpyrimidin-2-yl}amino)-4oxobutyl]carbamate] the IC50 (human GSK3 beta) was under 10 µM.

`CCN1/C(=C(\C#N)c2nc(NC(=O)Cc3ccccc3OC)ncc2C)Nc2ccccc21` [Example 79, N-{4-[(Z)-cyano(1-ethyl-1,3-dihydro-2H-benzimidazol-2-ylidene)methyl]-5-methylpyrimidin-2-yl}-2-(2-methoxyphenyl)acetamide] showed an IC50 (human GSK3 beta) of under 10 µM.

In the case of `CCN1/C(=C(\C#N)c2nc(NC(=O)C3CN(C(=O)OC(C)(C)C)CCO3)ncc2C)Nc2ccccc21` (stereo not drawn) [Example 84, tert-butyl 2-[({4-[(Z)-cyano(1-ethyl-1,3-dihydro-2H-benzimidazol-2-ylidene)methyl]-5-methylpyrimidin-2-yl}amino)carbonyl]morpholine-4-carboxylate], the IC50 (human GSK3 beta) is reported as under 10 µM.
